Data from US12559492B2, “BRAF degraders” (C4 Therapeutics, Inc., priority 2020, dated 2026).
Where a name gives a salt, the structure may show the parent alone.

Target: BRAF^V600E protein (Homo sapiens, UniProt P15056, V600E)
Experiment: HiBiT cellular BRAF V600E degradation assay
Type: cell-based
Details: 24 h incubation; for DC50: A375.10 cells (HiBiT tag knocked in at N-terminal of BRAF V600E), concentration at which 50% of total cellular BRAF V600E is degraded; for Emax: read-out: HiBit 24 h Emax
[1] = A375.10 cells, Emax = amount of residual protein remaining in the cell after compound treatment

BRAF^V600E protein, sequence (P15056 whole entry V600E): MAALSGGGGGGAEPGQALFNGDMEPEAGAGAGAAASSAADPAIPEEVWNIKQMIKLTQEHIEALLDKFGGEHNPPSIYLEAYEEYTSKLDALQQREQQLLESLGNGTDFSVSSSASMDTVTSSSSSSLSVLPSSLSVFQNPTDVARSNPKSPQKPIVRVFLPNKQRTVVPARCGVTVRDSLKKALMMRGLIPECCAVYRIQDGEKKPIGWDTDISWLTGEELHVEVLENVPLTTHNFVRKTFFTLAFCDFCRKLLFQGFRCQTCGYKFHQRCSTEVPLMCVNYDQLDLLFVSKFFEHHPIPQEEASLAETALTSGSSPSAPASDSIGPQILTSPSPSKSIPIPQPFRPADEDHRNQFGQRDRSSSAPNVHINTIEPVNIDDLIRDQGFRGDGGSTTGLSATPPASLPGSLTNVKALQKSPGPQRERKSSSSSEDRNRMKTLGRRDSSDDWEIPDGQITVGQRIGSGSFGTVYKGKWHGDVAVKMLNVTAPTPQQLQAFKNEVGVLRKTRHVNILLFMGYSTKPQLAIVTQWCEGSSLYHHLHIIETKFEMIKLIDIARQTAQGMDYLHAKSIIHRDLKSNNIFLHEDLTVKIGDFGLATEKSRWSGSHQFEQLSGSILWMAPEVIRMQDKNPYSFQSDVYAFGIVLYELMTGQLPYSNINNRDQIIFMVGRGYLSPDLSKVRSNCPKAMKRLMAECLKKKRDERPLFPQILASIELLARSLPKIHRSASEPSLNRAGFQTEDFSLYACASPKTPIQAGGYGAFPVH

`CCN(C)S(=O)(=O)Nc1ccc(F)c(C(=O)c2c[nH]c3ncc(-c4cnc(N5CCN(C(=O)CN6CCC(c7ccc8c(N9CCC(=O)NC9=O)nn(C)c8c7)C(F)(F)C6)CC5)nc4)cc23)c1F` (stereo not drawn) [Example 61, 3-(2,4-dioxohexahydropyrimidin-1-yl)-6-[1-[2-[4-[5-[3-[3-[[ethyl(methyl)sulfamoyl]amino]-2,6-difluoro-benzoyl]-1H-pyrrolo[2,3-b]pyridin-5-yl]pyrimidin-2-yl]piperazin-1-yl]-2-oxo-ethyl]-3,3-difluoro-4-piperidyl]-1-methyl-indazole] gave a DC50 of 3.75 nM and an Emax [1] of 7.83%.
For `CCN(C)S(=O)(=O)Nc1ccc(F)c(C(=O)c2c[nH]c3ncc(-c4ccc(N5CCC(NC(=O)CN6CCC(c7ccc(NC8CCC(=O)NC8=O)cn7)CC6)CC5)cc4)cc23)c1F` (stereo not drawn) [Example A56, 2-[4-[5-[(2,6-dioxopiperidin-3-yl)amino]pyridin-2-yl]piperidin-1-yl]-N-[1-[4-[3-[3-[[ethyl(methyl)sulfamoyl]amino]-2,6-difluorobenzoyl]-1H-pyrrolo[2,3-b]pyridin-5-yl]phenyl]piperidin-4-yl]acetamide; formic acid], the DC50 was 20 nM and the Emax [1] was 11%.
`O=C1CCC(Nc2ccc(N3CCC(O)(CC(=O)N4CCN(c5ccc(-c6cnc7[nH]cc(C(=O)c8c(F)ccc(NS(=O)(=O)N9CC[C@@H](F)C9)c8F)c7c6)cc5)CC4)CC3)c(F)c2)C(=O)N1` (stereo partly drawn) [Example 191, (3R)—N-[3-[5-[4-[4-[2-[1-[4-[(2,6-dioxo-3-piperidyl)amino]-2-fluoro-phenyl]-4-hydroxy-4-piperidyl]acetyl]piperazin-1-yl]phenyl]-1H-pyrrolo[2,3-b]pyridine-3-carbonyl]-2,4-difluoro-phenyl]-3-fluoro-pyrrolidine-1-sulfonamide] showed a DC50 of 3.89 nM and an Emax [1] of 7.76%.
Work on `CCN(C)S(=O)(=O)Nc1ccc(F)c(C(=O)c2c[nH]c3ncc(-c4ccc(N5CCN(C(=O)CN6CCC(N7CCN(C8CCC(=O)NC8=O)C(=O)C7)C(F)(F)C6)CC5)nc4)cc23)c1F` (stereo not drawn) [Example 171, 5-[6-[4-[2-[4-[4-(2,6-dioxo-3-piperidyl)-3-oxo-piperazin-1-yl]-3,3-difluoro-1-piperidyl]acetyl]piperazin-1-yl]-3-pyridyl]-3-[3-[[ethyl(methyl)sulfamoyl]amino]-2,6-difluoro-benzoyl]-1H-pyrrolo[2,3-b]pyridine] yielded a DC50 of 5.87 nM and an Emax [1] of 7.61%.
With `CCN(C)S(=O)(=O)Nc1ccc(F)c(C(=O)c2c[nH]c3ncc(-c4cnc(N5CCN(C(=O)CC6(O)CCN(c7ccc(C8CCC(=O)NC8=O)cc7F)CC6)CC5)c(F)c4)cc23)c1F` (stereo not drawn) [Example 205, 5-[6-[4-[2-[1-[4-(2,6-dioxo-3-piperidyl)-2-fluoro-phenyl]-4-hydroxy-4-piperidyl]acetyl]piperazin-1-yl]-5-fluoro-3-pyridyl]-3-[3-[[ethyl(methyl)sulfamoyl]amino]-2,6-difluoro-benzoyl]-1H-pyrrolo[2,3-b]pyridine] the DC50 was 2.34 nM and the Emax [1] was 6.63%.
With `O=C1CCC(Oc2ccc(C3CCN(CC(=O)N4CCN(c5ccc(-c6cnc7[nH]cc(C(=O)c8c(F)ccc(NS(=O)(=O)C9CCCCC9)c8F)c7c6)cn5)CC4)CC3)cc2)C(=O)N1` (stereo not drawn) [Example A32, N-[3-[5-[6-[4-[2-[4-[4-(2,6-Dioxopiperidin-3-yl)oxyphenyl]piperidin-1-yl]acetyl]piperazin-1-yl]pyridin-3-yl]-1H-pyrrolo[2,3-b]pyridine-3-carbonyl]-2,4-difluorophenyl]cyclohexanesulfonamide] the DC50 was 39 nM and the Emax [1] was 15%.
Compound `CCN(C)S(=O)(=O)Nc1ccc(F)c(C(=O)c2c[nH]c3ncc(-c4cnc(N5CCC(NCC(=O)N6CCC(c7ccc(OC8CCC(=O)NC8=O)cc7)CC6)CC5)nc4)cc23)c1F` (stereo not drawn) [Example A102, 5-[2-[4-[[2-[4-[4-(2,6-Dioxopiperidin-3-yl)oxyphenyl]piperidin-1-yl]-2-oxoethyl]amino]piperidin-1-yl]pyrimidin-5-yl]-3-[3-[[ethyl(methyl)sulfamoyl]amino]-2,6-difluorobenzoyl]-1H-pyrrolo[2,3-b]pyridine;formic acid] has a DC50 of 33 nM and an Emax [1] of 12%.
For `CCN(C)S(=O)(=O)Nc1ccc(F)c(C(=O)c2c[nH]c3ncc(-c4cnc(N5CCN(C(=O)CN6CCC(c7ccc(NC8CCC(=O)NC8=O)cc7F)CC6)CC5)nc4)cc23)c1F` (stereo not drawn) [Example A54, 5-[2-[4-[2-[4-[4-[(2,6-Dioxopiperidin-3-yl)amino]-2-fluorophenyl]piperidin-1-yl]acetyl]piperazin-1-yl]pyrimidin-5-yl]-3-[3-[[ethyl(methyl)sulfamoyl]amino]-2,6-difluorobenzoyl]-1H-pyrrolo[2,3-b]pyridine], the DC50 was 3.94 nM and the Emax [1] was 9.71%.
`CCN(C)S(=O)(=O)Nc1ccc(F)c(C(=O)c2c[nH]c3ncc(-c4cnc(N5CCN(C(=O)NC6CCN(c7ccc(NC8CCC(=O)NC8=O)cc7F)CC6)CC5)nc4)cc23)c1F` (stereo not drawn) [Example 138, N-[1-[4-[(2,6-dioxo-3-piperidyl)amino]-2-fluoro-phenyl]-4-piperidyl]-4-[5-[3-[3-[[ethyl(methyl)sulfamoyl]amino]-2,6-difluoro-benzoyl]-1H-pyrrolo[2,3-b]pyridin-5-yl]pyrimidin-2-yl]piperazine-1-carboxamide] was tested, and the DC50 was 10.5 nM and the Emax [1] was 7.71%.
`CCN(C)S(=O)(=O)Nc1ccc(F)c(C(=O)c2c[nH]c3ncc(-c4cnc(N5CCN(C(=O)CN6CCC(c7ccc(N[C@H]8CCC(=O)NC8=O)cc7)CC6)CC5)nc4)cc23)c1F` (single isomer, unassigned) [Example A111] was tested, and the DC50 was 4 nM and the Emax [1] was 7%.
`CCN(C)S(=O)(=O)Nc1ccc(F)c(C(=O)c2c[nH]c3ncc(-c4ccc(N5CCC(N(C)C(=O)CN6CCC(c7ccc(NC8CCC(=O)NC8=O)cn7)CC6)CC5)nc4)cc23)c1F` (stereo not drawn) [Example A95, 2-[4-[5-[(2,6-Dioxopiperidin-3-yl)amino]pyridin-2-yl]piperidin-1-yl]-N-[1-[5-[3-[3-[[ethyl(methyl)sulfamoyl]amino]-2,6-difluorobenzoyl]-1H-pyrrolo[2,3-b]pyridin-5-yl]pyridin-2-yl]piperidin-4-yl]-N-methylacetamide;hydrochloride] was tested, and the DC50 was 11 nM and the Emax [1] was 7%.
With `CCN(C)S(=O)(=O)Nc1ccc(F)c(C(=O)c2c[nH]c3ncc(-c4cnc(N5CCN(C(=O)CN6CC7(C6)CN(c6ccc(NC8CCC(=O)NC8=O)cc6)C7)CC5)nc4)cc23)c1F` (stereo not drawn) [Example 49, 5-[2-[4-[2-[2-[4-[(2,6-dioxo-3-piperidyl)amino]phenyl]-2,6-diazaspiro[3.3]heptan-6-yl]acetyl]piperazin-1-yl]pyrimidin-5-yl]-3-[3-[[ethyl(methyl)sulfamoyl]amino]-2,6-difluoro-benzoyl]-1H-pyrrolo[2,3-b]pyridine] the DC50 was 24.9 nM and the Emax [1] was 17.5%.
Work on `CCN(C)S(=O)(=O)Nc1ccc(F)c(C(=O)c2c[nH]c3ncc(-c4ccc(N5CCN(C(=O)CC6(O)CCN(c7ccc(N[C@H]8CCC(=O)NC8=O)cc7F)CC6)CC5)nc4)cc23)c1F` [Example 176, 5-[6-[4-[2-[1-[4-[[(3S)-2,6-dioxo-3-piperidyl]amino]-2-fluoro-phenyl]-4-hydroxy-4-piperidyl]acetyl]piperazin-1-yl]-3-pyridyl]-3-[3-[[ethyl(methyl)sulfamoyl]amino]-2,6-difluoro-benzoyl]-1H-pyrrolo[2,3-b]pyridine] yielded a DC50 of 5.84 nM and an Emax [1] of 9.54%.
`CCN(C)S(=O)(=O)Nc1ccc(F)c(C(=O)c2c[nH]c3ncc(-c4cnc(N5CCC(N(C)C(=O)CN6CCC(c7ccc(NC8CCC(=O)NC8=O)cn7)CC6)CC5)nc4)cc23)c1F` (stereo not drawn) [Example A92, 2-[4-[5-[(2,6-Dioxopiperidin-3-yl)amino]pyridin-2-yl]piperidin-1-yl]-N-[1-[5-[3-[3-[[ethyl(methyl)sulfamoyl]amino]-2,6-difluorobenzoyl]-1H-pyrrolo[2,3-b]pyridin-5-yl]pyrimidin-2-yl]piperidin-4-yl]-N-methylacetamide; formic acid] gave a DC50 of 8 nM and an Emax [1] of 7%.
For `CCN(C)S(=O)(=O)Nc1ccc(F)c(C(=O)c2c[nH]c3ncc(-c4cnc(N5CCC(O)(CCN6CCC(c7ccc(NC8CCC(=O)NC8=O)cc7)CC6)CC5)nc4)cc23)c1F` (stereo not drawn) [Example 149, 5-[2-[4-[2-[4-[4-[(2,6-dioxo-3-piperidyl)amino]phenyl]-1-piperidyl]ethyl]-4-hydroxy-1-piperidyl]pyrimidin-5-yl]-3-[3-[[ethyl(methyl)sulfamoyl]amino]-2,6-difluoro-benzoyl]-1H-pyrrolo[2,3-b]pyridine], the DC50 was 9.25 nM and the Emax [1] was 10.6%.
For `CCN(C)S(=O)(=O)Nc1ccc(F)c(C(=O)c2c[nH]c3ncc(-c4ccc(N5CCN(C(=O)CN6CCC(c7ccc(NC8CCC(=O)NC8=O)cc7)CC6)CC5)cc4)cc23)c1F` (stereo not drawn) [Example 84, 5-[4-[4-[2-[4-[4-[(2,6-dioxo-3-piperidyl)amino]phenyl]-1-piperidyl]acetyl]piperazin-1-yl]phenyl]-3-[3-[[ethyl(methyl)sulfamoyl]amino]-2,6-difluoro-benzoyl]-1H-pyrrolo[2,3-b]pyridine], the DC50 was 3.14 nM and the “HiBit 24 h Emax” value [1] was 9.62%.
In the case of `CCN(C)S(=O)(=O)Nc1ccc(F)c(C(=O)c2c[nH]c3ncc(-c4cnc(N5CCN(C(=O)CC6(O)CCN(c7ccc(N[C@H]8CCC(=O)NC8=O)cc7Cl)CC6)CC5)nc4)cc23)c1F` [Example 206, 5-[2-[4-[2-[1-[2-chloro-4-[[(3S)-2,6-dioxo-3-piperidyl]amino]phenyl]-4-hydroxy-4-piperidyl]acetyl]piperazin-1-yl]pyrimidin-5-yl]-3-[3-[[ethyl(methyl)sulfamoyl]amino]-2,6-difluoro-benzoyl]-1H-pyrrolo[2,3-b]pyridine], the DC50 is reported as 2.28 nM and the Emax [1] is reported as 6.9%.
`O=C1CCC(Nc2ccc(C3CCN(CCCC(=O)N4CC(c5ccc(-c6cnc7[nH]cc(C(=O)c8c(F)ccc(NS(=O)(=O)N9CCCC9)c8F)c7c6)cc5)C4)CC3)cc2)C(=O)N1` (stereo not drawn) [Example A89, N-[3-[5-[4-[1-[4-[4-[4-[(2,6-dioxopiperidin-3-yl)amino]phenyl]piperidin-1-yl]butanoyl]azetidin-3-yl]phenyl]-1H-pyrrolo[2,3-b]pyridine-3-carbonyl]-2,4-difluorophenyl]pyrrolidine-1-sulfonamide] gave a DC50 of 73 nM and an Emax [1] of 12%.
